In US10758534B2 (Vertex Pharmaceuticals Incorporated, priority 2014, dated 2020):

target: T1, F508del (Homo sapiens, UniProt P13569, DEL508-508); assay: Protocol 2: FRET membrane potential optical assay (VIPR), identification of correction compounds; assay type: cell-based; settings: Table 3; compounds of Table 1 as modulators of CFTR activity; protocol not stated
T1 construct: expressed in transfected cells
In short: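 Corrector readout: membrane-potential FRET (CC2-DMPE donor, DiSBAC2(3) acceptor) on VIPR II after Cl⁻-free gluconate bath with 10 μM forskolin and 20 μM genistein. Before this, F508del-expressing NIH3T3 cells were exposed to test compound for 16 h at 37 °C without serum; 27 °C incubation served as temperature-correction control.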

T1 sequence (P13569 with tags, fused parts or gaps DEL508-508): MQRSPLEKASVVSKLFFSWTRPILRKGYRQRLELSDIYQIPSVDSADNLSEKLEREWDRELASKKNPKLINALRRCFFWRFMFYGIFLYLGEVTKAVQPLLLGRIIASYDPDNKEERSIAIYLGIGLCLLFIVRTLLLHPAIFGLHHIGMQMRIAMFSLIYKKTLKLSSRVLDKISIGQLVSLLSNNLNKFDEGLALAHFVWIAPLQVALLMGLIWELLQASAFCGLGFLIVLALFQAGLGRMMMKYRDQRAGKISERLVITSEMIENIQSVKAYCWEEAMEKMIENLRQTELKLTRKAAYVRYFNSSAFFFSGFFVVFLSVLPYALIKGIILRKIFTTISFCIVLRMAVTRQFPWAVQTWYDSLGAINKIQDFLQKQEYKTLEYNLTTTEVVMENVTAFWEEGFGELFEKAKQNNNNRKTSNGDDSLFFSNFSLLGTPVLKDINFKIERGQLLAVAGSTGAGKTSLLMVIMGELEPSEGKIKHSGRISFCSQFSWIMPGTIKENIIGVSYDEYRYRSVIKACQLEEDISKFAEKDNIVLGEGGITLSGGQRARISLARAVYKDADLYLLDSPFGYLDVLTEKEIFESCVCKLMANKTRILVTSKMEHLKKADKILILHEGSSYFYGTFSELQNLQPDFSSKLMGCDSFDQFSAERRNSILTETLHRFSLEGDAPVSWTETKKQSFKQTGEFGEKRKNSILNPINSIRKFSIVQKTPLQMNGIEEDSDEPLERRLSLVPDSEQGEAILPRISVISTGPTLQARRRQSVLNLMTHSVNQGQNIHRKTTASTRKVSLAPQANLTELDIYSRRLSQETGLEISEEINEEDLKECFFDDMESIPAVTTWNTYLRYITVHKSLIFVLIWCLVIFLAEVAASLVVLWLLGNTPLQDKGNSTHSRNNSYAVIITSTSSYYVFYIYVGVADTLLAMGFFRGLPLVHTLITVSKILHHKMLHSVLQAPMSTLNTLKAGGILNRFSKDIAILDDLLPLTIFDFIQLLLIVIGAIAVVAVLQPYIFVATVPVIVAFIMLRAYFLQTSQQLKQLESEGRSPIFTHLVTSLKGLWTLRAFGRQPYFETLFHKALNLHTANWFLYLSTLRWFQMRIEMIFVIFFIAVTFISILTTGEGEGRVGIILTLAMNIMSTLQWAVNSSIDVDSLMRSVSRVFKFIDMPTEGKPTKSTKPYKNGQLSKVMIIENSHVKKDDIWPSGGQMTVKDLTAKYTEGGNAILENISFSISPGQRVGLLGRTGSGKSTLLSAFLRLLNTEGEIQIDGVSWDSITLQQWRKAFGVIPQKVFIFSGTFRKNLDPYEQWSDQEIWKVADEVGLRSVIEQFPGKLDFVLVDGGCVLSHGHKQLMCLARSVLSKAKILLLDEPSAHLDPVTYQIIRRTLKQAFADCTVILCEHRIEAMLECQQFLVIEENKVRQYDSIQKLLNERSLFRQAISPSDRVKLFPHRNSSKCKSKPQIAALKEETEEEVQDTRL

| EC30 | SMILES |
| --- | --- |
| +++ (“+++” means <3 uM) | COc1cccc(-c2cc(C(=O)NS(=O)(=O)c3ccccc3)n(Cc3c(C)cccc3C)n2)c1 [Compound 176, N-(benzenesulfonyl)-2-[(2,6-dimethylphenyl)methyl]-5-(3-methoxyphenyl)pyrazole-3-carboxamide] |
| ++ (“++” means between 3 uM and 10 uM) | Cc1cc(-c2nc(C(C)(C)C)ccc2C(=O)NS(=O)(=O)c2cccc(N)c2)ccc1F [Compound 177, N-(3-aminophenyl)sulfonyl-6-tert-butyl-2-(4-fluoro-3-methyl-phenyl)pyridine-3-carboxamide] |
| +++ (“+++” means <3 uM) | Cc1cccc(C)c1Cn1nc(-c2cccc(N(C)C)c2)cc1C(=O)NS(=O)(=O)c1ccccc1 [Compound 178, N-(benzenesulfonyl)-5-[3-(dimethylamino)phenyl]-2-[(2,6-dimethylphenyl)methyl]pyrazole-3-carboxamide] |
| +++ (“+++” means <3 uM) | CCc1ccc2c(c1)cc(C(=O)NS(=O)(=O)c1cccc(N)n1)n2Cc1c(C)cc(C)cc1C [Compound 179, N-[(6-amino-2-pyridyl)sulfonyl]-5-ethyl-1-[(2,4,6-trimethylphenyl)methyl]indole-2-carboxamide] |
| +++ (“+++” means <3 uM) | Cc1cc(C)c(Cn2nc(C(C)(C)C)cc2C(=O)NS(=O)(=O)c2cccc3[nH]ccc23)c(C)c1 [Compound 180, 5-tert-butyl-N-(1H-indol-4-ylsulfonyl)-2-[(2,4,6-trimethylphenyl)methyl]pyrazole-3-carboxamide] |
| +++ (“+++” means <3 uM) | Cc1cc(C)c(Cn2c(C(=O)NS(=O)(=O)c3cccc(N)c3)cc3c(F)cccc32)c(C)c1 [Compound 181, N-(3-aminophenyl)sulfonyl-4-fluoro-1-[(2,4,6-trimethylphenyl)methyl]indole-2-carboxamide] |
| +++ (“+++” means <3 uM) | Cc1cc(C)c(Oc2nc3c(cc2C(=O)NS(=O)(=O)c2cccc(N)n2)CCCC3(C)C)c(C)c1 [Compound 182, N-[(6-amino-2-pyridyl)sulfonyl]-8,8-dimethyl-2-(2,4,6-trimethylphenoxy)-6,7-dihydro-5H-quinoline-3-carboxamide] |
| +++ (“+++” means <3 uM) | COc1ccccc1S(=O)(=O)NC(=O)c1cc2ccccc2n1Cc1c(C)cc(C)cc1C [Compound 183, N-(2-methoxyphenyl)sulfonyl-1-[(2,4,6-trimethylphenyl)methyl]indole-2-carboxamide] |
| ++ (“++” means between 3 uM and 10 uM) | Cc1cc(C)c(Cn2c(C(=O)NS(=O)(=O)c3cccc(N)c3)cc3cccnc32)c(C)c1 [Compound 184, N-(3-aminophenyl)sulfonyl-1-[(2,4,6-trimethylphenyl)methyl]pyrrolo[2,3-b]pyridine-2-carboxamide] |
| +++ (“+++” means <3 uM) | Cc1cccc(C)c1Cn1nc(C(C)(C)C)cc1C(=O)NS(=O)(=O)c1cccc(N)c1 [Compound 185, N-(3-aminophenyl)sulfonyl-5-tert-butyl-2-[(2,6-dimethylphenyl)methyl]pyrazole-3-carboxamide] |
| +++ (“+++” means <3 uM) | CC(c1ccccc1)n1c(C(=O)NS(=O)(=O)c2cccc(N)c2)cc2c(F)cccc21 (stereo not drawn) [Compound 186, N-(3-aminophenyl)sulfonyl-4-fluoro-1-(1-phenylethyl)indole-2-carboxamide] |
| ++ (“++” means between 3 uM and 10 uM) | CC(c1ccccc1)N1Cc2ccccc2C1C(=O)NS(=O)(=O)c1cccc(N)c1 (stereo not drawn) [Compound 187, N-(3-aminophenyl)sulfonyl-2-(1-phenylethyl)isoindoline-1-carboxamide] |
| +++ (“+++” means <3 uM) | Cc1cc(C)c(Cn2nc(C(C)(C)C)cc2C(=O)NS(=O)(=O)c2cccc3c2ccn3CCO)c(C)c1 [Compound 188, 5-tert-butyl-N-[1-(2-hydroxyethyl)indol-4-yl]sulfonyl-2-[(2,4,6-trimethylphenyl)methyl]pyrazole-3-carboxamide] |
| +++ (“+++” means <3 uM) | CC(C)(C)c1cc(C(=O)NS(=O)(=O)c2cccc(N)c2)n(Cc2c(Cl)cccc2C(F)(F)F)n1 [Compound 189, N-(3-aminophenyl)sulfonyl-5-tert-butyl-2-[[2-chloro-6-(trifluoromethyl)phenyl]methyl]pyrazole-3-carboxamide] |
| +++ (“+++” means <3 uM) | CCOc1ccc(-c2ccc(C(=O)NS(=O)(=O)c3cc[nH]n3)c(Oc3c(C)cc(C)cc3C)n2)cc1 [Compound 190, 6-(4-ethoxyphenyl)-N-(1H-pyrazol-3-ylsulfonyl)-2-(2,4,6-trimethylphenoxy)pyridine-3-carboxamide] |
| +++ (“+++” means <3 uM) | COc1ncccc1S(=O)(=O)NC(=O)c1ccc(C(C)(C)C)nc1Oc1c(C)cc(C)cc1C [Compound 191, 6-tert-butyl-N-[(2-methoxy-3-pyridyl)sulfonyl]-2-(2,4,6-trimethylphenoxy)pyridine-3-carboxamide] |

| EC30 | SMILES |
| --- | --- |
| +++ (“+++” means <3 uM) | CC(c1ccccc1)n1c(C(=O)NS(=O)(=O)c2ccncc2)cc2c(F)cccc21 (stereo not drawn) [Compound 192, 4-fluoro-1-(1-phenylethyl)-N-(4-pyridylsulfonyl)indole-2-carboxamide] |
| +++ (“+++” means <3 uM) | Cc1ccccc1N(C)c1nc(C(C)(C)C)ccc1C(=O)NS(=O)(=O)c1cccc(N)c1 [Compound 193, N-(3-aminophenyl)sulfonyl-6-tert-butyl-2-(N,2-dimethylanilino)pyridine-3-carboxamide] |
| +++ (“+++” means <3 uM) | Cc1cc(C)c(Cn2c(C(=O)NS(=O)(=O)c3cccc(N)c3)cc3cccc(C)c32)c(C)c1 [Compound 194, N-(3-aminophenyl)sulfonyl-7-methyl-1-[(2,4,6-trimethylphenyl)methyl]indole-2-carboxamide] |
| +++ (“+++” means <3 uM) | Cc1cc(C)c(Cn2cc(C(C)(C)C)cc2C(=O)NS(=O)(=O)c2cccc(N)c2)c(C)c1 [Compound 195, N-(3-aminophenyl)sulfonyl-4-tert-butyl-1-[(2,4,6-trimethylphenyl)methyl]pyrrole-2-carboxamide] |
| +++ (“+++” means <3 uM) | CC1CCN(c2nc3c(cc2C(=O)NS(=O)(=O)c2nccnc2N)CCCC3(C)C)CC1 [Compound 197, N-(3-aminopyrazin-2-yl)sulfonyl-8,8-dimethyl-2-(4-methyl-1-piperidyl)-6,7-dihydro-5H-quinoline-3-carboxamide] |
| +++ (“+++” means <3 uM) | COc1cc2cc(C(=O)NS(=O)(=O)c3ccccc3)n(Cc3c(C)cc(C)cc3C)c2cc1OC [Compound 198, N-(benzenesulfonyl)-5,6-dimethoxy-1-[(2,4,6-trimethylphenyl)methyl]indole-2-carboxamide] |
| +++ (“+++” means <3 uM) | Cc1ccc(-c2cc(C(=O)NS(=O)(=O)c3ccccc3)n(Cc3c(C)cccc3C)n2)cc1 [Compound 199, N-(benzenesulfonyl)-2-[(2,6-dimethylphenyl)methyl]-5-(p-tolyl)pyrazole-3-carboxamide] |
| ++ (“++” means between 3 uM and 10 uM) | COc1ccc(S(=O)(=O)NC(=O)C2c3ccccc3CN2Cc2c(C)cc(C)cc2C)cn1 (stereo not drawn) [Compound 200, N-[(6-methoxy-3-pyridyl)sulfonyl]-2-[(2,4,6-trimethylphenyl)methyl]isoindoline-1-carboxamide] |
| +++ (“+++” means <3 uM) | Cc1cc(C)c(C(C)n2nc(C(C)(C)C)cc2C(=O)NS(=O)(=O)c2ccccc2)c(C)c1 (stereo not drawn) [Compound 201, N-(benzenesulfonyl)-5-tert-butyl-2-[1-(2,4,6-trimethylphenyl)ethyl]pyrazole-3-carboxamide] |
| +++ (“+++” means <3 uM) | Cc1cccc(-c2cc(C(=O)NS(=O)(=O)c3ccccc3)n(Cc3c(C)cccc3C)n2)c1 [Compound 202, N-(benzenesulfonyl)-2-[(2,6-dimethylphenyl)methyl]-5-(m-tolyl)pyrazole-3-carboxamide] |
| +++ (“+++” means <3 uM) | Cc1cc(C)c(Oc2nc(-c3ccccc3)ccc2C(=O)NS(=O)(=O)c2cccc(N)n2)c(C)c1 [Compound 203, N-[(6-amino-2-pyridyl)sulfonyl]-6-phenyl-2-(2,4,6-trimethylphenoxy)pyridine-3-carboxamide] |
| +++ (“+++” means <3 uM) | Cc1ccc(Oc2nc(C(C)(C)C)ccc2C(=O)NS(=O)(=O)c2cccc(N)n2)c(C)c1 [Compound 204, N-[(6-amino-2-pyridyl)sulfonyl]-6-tert-butyl-2-(2,4-dimethylphenoxy)pyridine-3-carboxamide] |
| ++ (“++” means between 3 uM and 10 uM) | Cc1cc(C)c(Oc2nc(C(C)(C)C)ccc2C(=O)NS(=O)(=O)c2cccc(C(=O)O)c2)c(C)c1 [Compound 205, 3-[[6-tert-butyl-2-(2,4,6-trimethylphenoxy)pyridine-3-carbonyl]sulfamoyl]benzoic acid] |
| +++ (“+++” means <3 uM) | COc1ccc(S(=O)(=O)NC(=O)c2ccc(C(C)(C)C)nc2-c2ccc(C)cc2)cc1 [Compound 206, 6-tert-butyl-N-(4-methoxyphenyl)sulfonyl-2-(p-tolyl)pyridine-3-carboxamide] |
| +++ (“+++” means <3 uM) | Cc1cc(C)c(Oc2nc(-c3ccc(Cl)cc3F)ccc2C(=O)NS(=O)(=O)c2cccc(N)n2)c(C)c1 [Compound 207, N-[(6-amino-2-pyridyl)sulfonyl]-6-(4-chloro-2-fluoro-phenyl)-2-(2,4,6-trimethylphenoxy)pyridine-3-carboxamide] |
| +++ (“+++” means <3 uM) | COc1c(C)cccc1-c1cc(C(=O)NS(=O)(=O)c2cccc(N)c2)n(Cc2c(C)cc(C)cc2C)n1 [Compound 208, N-(3-aminophenyl)sulfonyl-5-(2-methoxy-3-methyl-phenyl)-2-[(2,4,6-trimethylphenyl)methyl]pyrazole-3-carboxamide] |

| SMILES | EC30 |
| --- | --- |
| Cc1cc(C)c(Oc2nc(-c3cc(F)cc(OCC(C)C)c3)ccc2C(=O)NS(=O)(=O)c2cccc(N)n2)c(C)c1 [Compound 196, N-[(6-amino-2-pyridyl)sulfonyl]-6-(3-fluoro-5-isobutoxy-phenyl)-2-(2,4,6-trimethylphenoxy)pyridine-3-carboxamide] | +++ (“+++” means <3 uM) |
